Experiments:
Assay type in all cases: in vivo
[1] = test system: Yellow Fever Mosquito (Aedes aegypti, AEDSAE); conditions: Table ABC: Biological Results; species YFM
Protocol: Certain molecules disclosed in this document were tested against YFM using procedures described in the following paragraph. In the reporting of the results, the “GPA & YFM Rating Table” was used (See Table Section).
Master plates containing 400 μg of a molecule dissolved in 100 μL of dimethyl sulfoxide (DMSO) (equivalent to a 4000 ppm solution) are used. A master plate of assembled molecules contains 15 μL per well. To this plate, 135 μL of a 90:10 water/acetone mixture is added to each well. A robot (Biomek® NXP Laboratory Automation Workstation) is programmed to dispense 15 μL aspirations from the master plate into an empty 96-well shallow plate (“daughter” plate). There are 6 reps (“daughter” plates) created per master. The created “daughter” plates are then immediately infested with YFM larvae.
The day before plates are to be treated, mosquito eggs are placed in Millipore water containing liver powder to begin hatching (4 g into 400 mL). After the “daughter” plates are created using the robot, they are infested with 220 μL of the liver powder/larval mosquito mixture (about 1 day-old larvae). After plates are infested with mosquito larvae, a non-evaporative lid is used to cover the plate to reduce drying. Plates are held at room temperature for 3 days prior to grading. After 3 days, each well is observed and scored based on mortality. The results are indicated in the table entitled “Table ABC: Biological Results” (See Table Section).

[2] = test system: Cabbage Looper (Trichoplusia ni, TRIPNI); assay: Bioassays on Cabbage Looper (CL), 128-well diet tray assay; conditions: Trichoplusia ni; Table ABC: Biological Results; species CL; read-out: CL
Summary of the method: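 Test molecule was dissolved in 90:10 acetone-water, applied to artificial diet at 50 μg/cm^2 and allowed to dry. Second-instar larvae were then added, one to five per well, and trays held at 25° C for five to seven days before mortality was scored and averaged.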

[3] = test system: Beet Armyworm (Spodoptera exigua, LAPHEG); assay: Bioassays on Beet Armyworm (BAW), 128-well diet tray assay; conditions: Spodoptera exigua; Table ABC: Biological Results; species BAW; read-out: BAW
Summary of the method: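 Mortality of second-instar larvae (1–5/well) on artificial diet treated with 50 μg/cm^2 compound, read after 5–7 days at 25° C.; values are means of eight wells.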

## O=C(Nc1ccc(F)cc1F)c1cc(NC(=O)[C@H]2[C@@H](c3ccc(F)c(Cl)c3F)C2(Cl)Cl)ccc1Cl (relative stereo) [F1033, cis-2-Chloro-5-(2,2-dichloro-3-(3-chloro-2,4-difluorophenyl)cyclopropane-1-carboxamido)-N-(2,4-difluorophenyl)benzamide]
[1]
  YFM: A (80–100)
[2]
  pest or weed control at 50 µg/cm2: 50 to 100%
[3]
  pest or weed control at 50 µg/cm2: 50 to 100%

## O=C(Nc1ccc(F)cc1F)c1cc(NC(=O)[C@H]2[C@H](c3ccc(F)c(Cl)c3F)C2(Cl)Cl)ccc1Cl (relative stereo) [F1034, trans-2-Chloro-5-(2,2-dichloro-3-(3-chloro-2,4-difluorophenyl)cyclopropane-1-carboxamido)-N-(2,4-difluorophenyl)benzamide]
[1]
  YFM: A (80–100)
[2]
  pest or weed control at 50 µg/cm2: 50 to 100%
[3]
  pest or weed control at 50 µg/cm2: 50 to 100%

## COc1ccc(CNc2ccc(NC(=O)c3cc(NC(=O)[C@H]4[C@H](c5cc(Cl)cc(Cl)c5)C4(Cl)Cl)ccc3Cl)c(C)c2)cc1 (relative stereo) [F1035, trans-2-Chloro-5-(2,2-dichloro-3-(3,5-dichlorophenyl)cyclopropane-1-carboxamido)-N-(4-((4-methoxybenzyl)amino)-2-methylphenyl)benzamide]
[1]
  YFM: A (80–100)
[2]
  pest or weed control at 50 µg/cm2: 50 to 100%
[3]
  pest or weed control at 50 µg/cm2: 50 to 100%

## Nc1c(F)ccc(NC(=O)c2cc(NC(=O)[C@H]3[C@H](c4ccc(Cl)c(C(F)F)c4)C3(Cl)Cl)ccc2Cl)c1F (relative stereo) [F1037, trans-N-(3-Amino-2,4-difluorophenyl)-2-chloro-5-(2,2-dichloro-3-(4-chloro-3-(difluoromethyl)phenyl)cyclopropane-1-carboxamido)benzamide]
[1]
  YFM: A (80–100)
[2]
  pest or weed control at 50 µg/cm2: 50 to 100%
[3]
  pest or weed control at 50 µg/cm2: 50 to 100%

## Nc1c(F)ccc(NC(=O)c2cc(NC(=O)[C@H]3[C@H](c4cc(Cl)cc(C(F)F)c4)C3(Cl)Cl)ccc2Cl)c1F (relative stereo) [F1038, trans-N-(3-Amino-2,4-difluorophenyl)-2-chloro-5-(2,2-dichloro-3-(3-chloro-5-(difluoromethyl)phenyl)cyclopropane-1-carboxamido)benzamide]
[1]
  YFM: A (80–100)
[2]
  pest or weed control at 50 µg/cm2: 50 to 100%
[3]
  pest or weed control at 50 µg/cm2: 50 to 100%

## CN(C(=O)c1cc(NC(=O)[C@H]2[C@H](c3cc(Cl)cc(Cl)c3)C2(Cl)Cl)ccc1C#N)c1ccc(F)cc1F (relative stereo) [F1039, trans-2-Cyano-5-(2,2-dichloro-3-(3,5-dichlorophenyl)cyclopropane-1-carboxamido)-N-(2,4-difluorophenyl)-N-methylbenzamide]
[1]
  YFM: A (80–100)
[2]
  pest or weed control at 50 µg/cm2: 50 to 100%
[3]
  pest or weed control at 50 µg/cm2: 50 to 100%

## Cc1cc(NCc2ccc(C#N)cc2)ccc1NC(=O)c1cc(NC(=O)[C@H]2[C@H](c3cc(Cl)cc(Cl)c3)C2(Cl)Cl)ccc1Cl (relative stereo) [F1040, trans-2-Chloro-N-(4-((4-cyanobenzyl)amino)-2-methylphenyl)-5-(2,2-dichloro-3-(3,5-dichlorophenyl)cyclopropane-1-carboxamido)benzamide]
[1]
  YFM: A (80–100)
[2]
  pest or weed control at 50 µg/cm2: 50 to 100%
[3]
  pest or weed control at 50 µg/cm2: 50 to 100%

## Nc1c(F)ccc(NC(=O)c2cc(NC(=O)[C@H]3[C@H](c4cc(Br)cc(S(F)(F)(F)(F)F)c4)C3(Cl)Cl)ccc2Cl)c1F (relative stereo) [F1042, trans-N-(3-Amino-2,4-difluorophenyl)-5-(3-(3-bromo-5-(pentafluoro-λ^6-sulfanyl)phenyl)-2,2-dichlorocyclopropane-1-carboxamido)-2-chlorobenzamide]
[1]
  YFM: A (80–100)
[2]
  pest or weed control at 50 µg/cm2: 50 to 100%
[3]
  pest or weed control at 50 µg/cm2: 50 to 100%

## Nc1c(F)ccc(NC(=O)c2cc(NC(=O)[C@H]3[C@@H](c4cc(Br)cc(S(F)(F)(F)(F)F)c4)C3(Cl)Cl)ccc2Cl)c1F (relative stereo) [F1043, cis-N-(3-Amino-2,4-difluorophenyl)-5-(3-(3-bromo-5-(pentafluoro-λ^6-sulfanyl)phenyl)-2,2-dichlorocyclopropane-1-carboxamido)-2-chlorobenzamide]
[1]
  YFM: A (80–100)
[2]
  pest or weed control at 50 µg/cm2: 50 to 100%
[3]
  pest or weed control at 50 µg/cm2: 50 to 100%

## Nc1c(F)ccc(NC(=O)c2cc(NC(=O)[C@H]3[C@H](c4cc(F)c(F)c(Br)c4)C3(Cl)Cl)ccc2Cl)c1F (relative stereo) [F1044, trans-N-(3-Amino-2,4-difluorophenyl)-5-(3-(3-bromo-4,5-difluorophenyl)-2,2-dichlorocyclopropane-1-carboxamido)-2-chlorobenzamide]
[1]
  YFM: A (80–100)
[2]
  pest or weed control at 50 µg/cm2: 50 to 100%
[3]
  pest or weed control at 50 µg/cm2: 50 to 100%

## Nc1c(F)ccc(NC(=O)c2cc(NC(=O)[C@H]3[C@@H](c4cc(F)c(F)c(Br)c4)C3(Cl)Cl)ccc2Cl)c1F (relative stereo) [F1045, cis-N-(3-Amino-2,4-difluorophenyl)-5-(3-(3-bromo-4,5-difluorophenyl)-2,2-dichlorocyclopropane-1-carboxamido)-2-chlorobenzamide]
[1]
  YFM: A (80–100)
[2]
  pest or weed control at 50 µg/cm2: 50 to 100%
[3]
  pest or weed control at 50 µg/cm2: 50 to 100%

## Nc1c(F)ccc(NC(=O)c2cc(NC(=O)[C@H]3[C@H](c4cc(F)c(Cl)c(Cl)c4)C3(Cl)Cl)ccc2Cl)c1F (relative stereo) [F1046, trans-N-(3-Amino-2,4-difluorophenyl)-2-chloro-5-(2,2-dichloro-3-(3,4-dichloro-5-fluorophenyl)cyclopropane-1-carboxamido)benzamide]
[1]
  YFM: A (80–100)
[2]
  pest or weed control at 50 µg/cm2: 50 to 100%
[3]
  pest or weed control at 50 µg/cm2: 50 to 100%

## Nc1c(F)ccc(NC(=O)c2cc(NC(=O)[C@H]3[C@@H](c4cc(F)c(Cl)c(Cl)c4)C3(Cl)Cl)ccc2Cl)c1F (relative stereo) [F1047, cis-N-(3-Amino-2,4-difluorophenyl)-2-chloro-5-(2,2-dichloro-3-(3,4-dichloro-5-fluorophenyl)cyclopropane-1-carboxamido)benzamide]
[1]
  YFM: A (80–100)
[2]
  pest or weed control at 50 µg/cm2: 50 to 100%
[3]
  pest or weed control at 50 µg/cm2: 50 to 100%

## Nc1c(F)ccc(NC(=O)c2cc(NC(=O)[C@H]3[C@H](c4ccc(F)c(Cl)c4F)C3(Cl)Cl)ccc2Cl)c1F (relative stereo) [F1049, trans-N-(3-Amino-2,4-difluorophenyl)-2-chloro-5-(2,2-dichloro-3-(3-chloro-2,4-difluorophenyl)cyclopropane-1-carboxamido)benzamide]
[1]
  YFM: A (80–100)
[2]
  pest or weed control at 50 µg/cm2: 50 to 100%
[3]
  pest or weed control at 50 µg/cm2: 50 to 100%

## O=C(Nc1ccc(F)cc1F)c1cc(NC(=O)[C@H]2[C@H](c3cc(C(F)(F)F)cc(Cl)c3F)C2(Cl)Cl)ccc1Cl (relative stereo) [F1050, trans-2-Chloro-5-(2,2-dichloro-3-(3-chloro-2-fluoro-5-(trifluoromethyl)phenyl)cyclopropane-1-carboxamido)-N-(2,4-difluorophenyl)benzamide]
[1]
  YFM: A (80–100)
[2]
  pest or weed control at 50 µg/cm2: 50 to 100%
[3]
  pest or weed control at 50 µg/cm2: 50 to 100%

## O=C(Nc1ccc(F)cc1F)c1cc(NC(=O)[C@H]2[C@@H](c3cc(C(F)(F)F)cc(Cl)c3F)C2(Cl)Cl)ccc1Cl (relative stereo) [F1051, cis-2-Chloro-5-(2,2-dichloro-3-(3-chloro-2-fluoro-5-(trifluoromethyl)phenyl)cyclopropane-1-carboxamido)-N-(2,4-difluorophenyl)benzamide]
[1]
  YFM: A (80–100)
[2]
  pest or weed control at 50 µg/cm2: 50 to 100%
[3]
  pest or weed control at 50 µg/cm2: 50 to 100%

## Cc1cc(Br)ccc1NC(=O)c1cc(NC(=O)[C@H]2[C@H](c3cc(Cl)cc(Cl)c3)C2(Cl)Cl)ccc1Cl (relative stereo) [F1054, trans-N-(4-Bromo-2-methylphenyl)-2-chloro-5-(2,2-dichloro-3-(3,5-dichlorophenyl)cyclopropane-1-carboxamido)benzamide]
[1]
  YFM: A (80–100)
[2]
  pest or weed control at 50 µg/cm2: 50 to 100%
[3]
  pest or weed control at 50 µg/cm2: 50 to 100%

## O=C(Nc1ccc(F)cc1)c1cc(NC(=O)[C@H]2[C@H](c3cc(Cl)cc(Cl)c3)C2(F)F)ccc1Cl (relative stereo) [F1057, trans-2-Chloro-5-(3-(3,5-dichlorophenyl)-2,2-difluorocyclopropane-1-carboxamido)-N-(4-fluorophenyl)benzamide]
[1]
  YFM: A (80–100)
[2]
  pest or weed control at 50 µg/cm2: 50 to 100%
[3]
  pest or weed control at 50 µg/cm2: 50 to 100%

## O=C(Nc1ccc(F)cc1F)c1cc(NC(=O)[C@H]2[C@H](c3cc(Cl)cc(Cl)c3)C2(F)F)ccc1Cl (relative stereo) [F1058, trans-2-Chloro-5-(3-(3,5-dichlorophenyl)-2,2-difluorocyclopropane-1-carboxamido)-N-(2,4-difluorophenyl)benzamide]
[1]
  YFM: A (80–100)
[2]
  pest or weed control at 50 µg/cm2: 50 to 100%
[3]
  pest or weed control at 50 µg/cm2: 50 to 100%

From patent US20250228239A1, “MOLECULES HAVING PESTICIDAL UTILITY, AND INTERMEDIATES, COMPOSITIONS, AND PROCESSES, RELATED THERETO” (priority 2024, published 2025)
